Measured values reported in ChEMBL document CHEMBL1201861, “Genomics of Drug Sensitity in Cancer screening data, Wellcome Trust Sanger Institute”.

These compounds were tested on LAN-6 (assay: cells). Details: Homo sapiens, LAN-6.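 Further: growth inhibition of LAN-6 cells, determined with a cell viability assay.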
Assay type: functional, cell-based, Homo sapiens
Description: SANGER: Inhibition of human LAN-6 cell growth in a cell viability assay.
CCN(CC)CCCCNc1ncc2cc(-c3cc(OC)cc(OC)c3)c(NC(=O)NC(C)(C)C)nc2n1 [PD-173074] was tested, and the IC50 was > 2000 nM.

Each compound was assayed on SNB-75 (assay: cells). Details: Homo sapiens, SNB-75.
Assay type: functional, cell-based, Homo sapiens
Description: SANGER: Inhibition of human SNB75 cell growth in a cell viability assay.
With CCN(CC)CCCCNc1ncc2cc(-c3cc(OC)cc(OC)c3)c(NC(=O)NC(C)(C)C)nc2n1 [PD-173074] the IC50 was > 2000 nM.

Each compound was assayed on ML-2 (assay: cells). Details: Homo sapiens, ML-2.
Assay type: functional, cell-based, Homo sapiens
Description: SANGER: Inhibition of human ML-2 cell growth in a cell viability assay.
For CCN(CC)CCCCNc1ncc2cc(-c3cc(OC)cc(OC)c3)c(NC(=O)NC(C)(C)C)nc2n1 [PD-173074], the IC50 was > 2000 nM.

These compounds were tested on MHH-NB-11 (assay: cells). Details: Homo sapiens, MHH-NB-11.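 Further: growth inhibition of human MHH-NB-11 cells, read out by a cell viability assay.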
Assay type: functional, cell-based, Homo sapiens
Description: SANGER: Inhibition of human MHH-NB-11 cell growth in a cell viability assay.
CCN(CC)CCCCNc1ncc2cc(-c3cc(OC)cc(OC)c3)c(NC(=O)NC(C)(C)C)nc2n1 [PD-173074] was tested, and the IC50 was > 2000 nM.

The compounds below were run on LB1047-RCC (assay: cells). Details: Homo sapiens, LB1047-RCC.
Assay type: functional, cell-based, Homo sapiens
Description: SANGER: Inhibition of human LB1047-RCC cell growth in a cell viability assay.
CCN(CC)CCCCNc1ncc2cc(-c3cc(OC)cc(OC)c3)c(NC(=O)NC(C)(C)C)nc2n1 [PD-173074] was tested, and the IC50 was > 2000 nM.

These compounds were tested on SK-UT-1 (assay: cells). Details: Homo sapiens, SK-UT-1.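 Further: growth inhibition of SK-UT-1 cells, measured by a cell viability assay.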
Assay type: functional, cell-based, Homo sapiens
Description: SANGER: Inhibition of human SK-UT-1 cell growth in a cell viability assay.
CCN(CC)CCCCNc1ncc2cc(-c3cc(OC)cc(OC)c3)c(NC(=O)NC(C)(C)C)nc2n1 [PD-173074] was tested, and the IC50 was > 2000 nM.

These compounds were tested on NB69 (assay: cells). Details: Homo sapiens, NB69.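 Further: growth inhibition of NB69 cells, determined by a cell viability assay.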
Assay type: functional, cell-based, Homo sapiens
Description: SANGER: Inhibition of human NB69 cell growth in a cell viability assay.
CCN(CC)CCCCNc1ncc2cc(-c3cc(OC)cc(OC)c3)c(NC(=O)NC(C)(C)C)nc2n1 [PD-173074] was tested, and the IC50 was > 2000 nM.

These compounds were tested on VA-ES-BJ (assay: cells). Details: Homo sapiens, VA-ES-BJ.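 Further: growth inhibition of the VA-ES-BJ cell line, read out by a cell viability assay.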
Assay type: functional, cell-based, Homo sapiens
Description: SANGER: Inhibition of human VA-ES-BJ cell growth in a cell viability assay.
In the case of CCN(CC)CCCCNc1ncc2cc(-c3cc(OC)cc(OC)c3)c(NC(=O)NC(C)(C)C)nc2n1 [PD-173074], the IC50 is reported as > 2000 nM.

Each compound was assayed on RPMI-8866 (assay: cells). Details: Homo sapiens, RPMI-8866.
Assay type: functional, cell-based, Homo sapiens
Description: SANGER: Inhibition of human RPMI-8866 cell growth in a cell viability assay.
For CCN(CC)CCCCNc1ncc2cc(-c3cc(OC)cc(OC)c3)c(NC(=O)NC(C)(C)C)nc2n1 [PD-173074], the IC50 was > 2000 nM.

Each compound was assayed on ES1 (assay: cells). Details: Homo sapiens, ES1.
Assay type: functional, cell-based, Homo sapiens
Description: SANGER: Inhibition of human ES1 cell growth in a cell viability assay.
In the case of CCN(CC)CCCCNc1ncc2cc(-c3cc(OC)cc(OC)c3)c(NC(=O)NC(C)(C)C)nc2n1 [PD-173074], the IC50 is reported as > 2000 nM.

What follows are compounds tested on NKM-1 (assay: cells). Details: Homo sapiens, NKM-1.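 Further: growth inhibition of NKM-1 cells, read out with a cell viability assay.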
Assay type: functional, cell-based, Homo sapiens
Description: SANGER: Inhibition of human NKM-1 cell growth in a cell viability assay.
With CCN(CC)CCCCNc1ncc2cc(-c3cc(OC)cc(OC)c3)c(NC(=O)NC(C)(C)C)nc2n1 [PD-173074] the IC50 was > 2000 nM.

The compounds below were run on SW872 (assay: cells). Details: Homo sapiens, SW872.
Assay type: functional, cell-based, Homo sapiens
Description: SANGER: Inhibition of human SW872 cell growth in a cell viability assay.
CCN(CC)CCCCNc1ncc2cc(-c3cc(OC)cc(OC)c3)c(NC(=O)NC(C)(C)C)nc2n1 [PD-173074] was tested, and the IC50 was > 2000 nM.

Each compound was assayed on SNU1 (assay: cells). Details: Homo sapiens, SNU1.
Assay type: functional, cell-based, Homo sapiens
Description: SANGER: Inhibition of human NCI-SNU-1 cell growth in a cell viability assay.
For CCN(CC)CCCCNc1ncc2cc(-c3cc(OC)cc(OC)c3)c(NC(=O)NC(C)(C)C)nc2n1 [PD-173074], the IC50 was > 2000 nM.

The compounds below were run on COLO-800 (assay: cells). Details: Homo sapiens, COLO-800.
Assay type: functional, cell-based, Homo sapiens
Description: SANGER: Inhibition of human COLO-800 cell growth in a cell viability assay.
In the case of CCN(CC)CCCCNc1ncc2cc(-c3cc(OC)cc(OC)c3)c(NC(=O)NC(C)(C)C)nc2n1 [PD-173074], the IC50 is reported as > 2000 nM.

These compounds were tested on LXF-289 cell line (assay: cells). Details: Homo sapiens, LXF-289.
Assay type: functional, cell-based, Homo sapiens
Description: SANGER: Inhibition of human LXF-289 cell growth in a cell viability assay.
With CCN(CC)CCCCNc1ncc2cc(-c3cc(OC)cc(OC)c3)c(NC(=O)NC(C)(C)C)nc2n1 [PD-173074] the IC50 was > 2000 nM.

What follows are compounds tested on CTV-1 (assay: cells). Details: Homo sapiens, CTV-1.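 Further: growth inhibition of the cell line, read out with a cell viability assay.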
Assay type: functional, cell-based, Homo sapiens
Description: SANGER: Inhibition of human CTV-1 cell growth in a cell viability assay.
In the case of CCN(CC)CCCCNc1ncc2cc(-c3cc(OC)cc(OC)c3)c(NC(=O)NC(C)(C)C)nc2n1 [PD-173074], the IC50 is reported as > 2000 nM.

These compounds were tested on A253 cell line (assay: cells). Details: Homo sapiens, A253.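 Further: growth inhibition of A253 cells, read out with a cell viability assay.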
Assay type: functional, cell-based, Homo sapiens
Description: SANGER: Inhibition of human A253 cell growth in a cell viability assay.
With CCN(CC)CCCCNc1ncc2cc(-c3cc(OC)cc(OC)c3)c(NC(=O)NC(C)(C)C)nc2n1 [PD-173074] the IC50 was > 2000 nM.

The compounds below were run on TGBC24TKB (assay: cells). Details: Homo sapiens, TGBC24TKB.
Assay type: functional, cell-based, Homo sapiens
Description: SANGER: Inhibition of human TGBC24TKB cell growth in a cell viability assay.
CCN(CC)CCCCNc1ncc2cc(-c3cc(OC)cc(OC)c3)c(NC(=O)NC(C)(C)C)nc2n1 [PD-173074] was tested, and the IC50 was > 2000 nM.

Each compound was assayed on 697 (assay: cells). Details: Homo sapiens.
Assay type: functional, cell-based, Homo sapiens
Description: SANGER: Inhibition of human 697 cell growth in a cell viability assay.
With CCN(CC)CCCCNc1ncc2cc(-c3cc(OC)cc(OC)c3)c(NC(=O)NC(C)(C)C)nc2n1 [PD-173074] the IC50 was > 2000 nM.

What follows are compounds tested on ES7 (assay: cells). Details: Homo sapiens, ES7.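 Further: growth inhibition of cultured human ES7 cells, read out as cell viability.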
Assay type: functional, cell-based, Homo sapiens
Description: SANGER: Inhibition of human ES7 cell growth in a cell viability assay.
CCN(CC)CCCCNc1ncc2cc(-c3cc(OC)cc(OC)c3)c(NC(=O)NC(C)(C)C)nc2n1 [PD-173074] was tested, and the IC50 was > 2000 nM.

Each compound was assayed on NCI-H1648 (assay: cells). Details: Homo sapiens, NCI-H1648.
Assay type: functional, cell-based, Homo sapiens
Description: SANGER: Inhibition of human NCI-H1648 cell growth in a cell viability assay.
CCN(CC)CCCCNc1ncc2cc(-c3cc(OC)cc(OC)c3)c(NC(=O)NC(C)(C)C)nc2n1 [PD-173074] was tested, and the IC50 was > 2000 nM.

What follows are compounds tested on TE-12 (assay: cells). Details: Homo sapiens, TE-12.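 Further: growth inhibition of TE-12 cells, read out by a cell viability assay.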
Assay type: functional, cell-based, Homo sapiens
Description: SANGER: Inhibition of human TE-12 cell growth in a cell viability assay.
For CCN(CC)CCCCNc1ncc2cc(-c3cc(OC)cc(OC)c3)c(NC(=O)NC(C)(C)C)nc2n1 [PD-173074], the IC50 was > 2000 nM.

What follows are compounds tested on no-11 (assay: cells). Details: Homo sapiens.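 Further: growth inhibition of human NO-11 cells, read out with a cell viability assay.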
Assay type: functional, cell-based, Homo sapiens
Description: SANGER: Inhibition of human no-11 cell growth in a cell viability assay.
CCN(CC)CCCCNc1ncc2cc(-c3cc(OC)cc(OC)c3)c(NC(=O)NC(C)(C)C)nc2n1 [PD-173074] was tested, and the IC50 was > 2000 nM.

Each compound was assayed on MHH-PREB-1 (assay: cells). Details: Homo sapiens, MHH-PREB-1.
Assay type: functional, cell-based, Homo sapiens
Description: SANGER: Inhibition of human MHH-PREB-1 cell growth in a cell viability assay.
With CCN(CC)CCCCNc1ncc2cc(-c3cc(OC)cc(OC)c3)c(NC(=O)NC(C)(C)C)nc2n1 [PD-173074] the IC50 was > 2000 nM.

Each compound was assayed on LS-123 (assay: cells). Details: Homo sapiens, LS-123.
Assay type: functional, cell-based, Homo sapiens
Description: SANGER: Inhibition of human LS-123 cell growth in a cell viability assay.
In the case of CCN(CC)CCCCNc1ncc2cc(-c3cc(OC)cc(OC)c3)c(NC(=O)NC(C)(C)C)nc2n1 [PD-173074], the IC50 is reported as > 2000 nM.

What follows are compounds tested on EOL1 (assay: cells). Details: Homo sapiens, EOL1.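 Further: growth inhibition of EoL-1 cells, read out by a cell viability assay.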
Assay type: functional, cell-based, Homo sapiens
Description: SANGER: Inhibition of human EoL-1-cell cell growth in a cell viability assay.
CCN(CC)CCCCNc1ncc2cc(-c3cc(OC)cc(OC)c3)c(NC(=O)NC(C)(C)C)nc2n1 [PD-173074] was tested, and the IC50 was 330 nM.

These compounds were tested on U-266 (assay: cells). Details: Homo sapiens, U-266.
Assay type: functional, cell-based, Homo sapiens
Description: SANGER: Inhibition of human U-266 cell growth in a cell viability assay.
With CCN(CC)CCCCNc1ncc2cc(-c3cc(OC)cc(OC)c3)c(NC(=O)NC(C)(C)C)nc2n1 [PD-173074] the IC50 was > 2000 nM.

Each compound was assayed on EW-18 (assay: cells). Details: Homo sapiens, EW-18.
Assay type: functional, cell-based, Homo sapiens
Description: SANGER: Inhibition of human EW-18 cell growth in a cell viability assay.
With CCN(CC)CCCCNc1ncc2cc(-c3cc(OC)cc(OC)c3)c(NC(=O)NC(C)(C)C)nc2n1 [PD-173074] the IC50 was > 2000 nM.

The compounds below were run on TE-8 (assay: cells). Details: Homo sapiens, TE-8.
Assay type: functional, cell-based, Homo sapiens
Description: SANGER: Inhibition of human TE-8 cell growth in a cell viability assay.
With CCN(CC)CCCCNc1ncc2cc(-c3cc(OC)cc(OC)c3)c(NC(=O)NC(C)(C)C)nc2n1 [PD-173074] the IC50 was > 2000 nM.

The compounds below were run on BB49-HNC (assay: cells). Details: Homo sapiens, BB49-HNC.
Assay type: functional, cell-based, Homo sapiens
Description: SANGER: Inhibition of human BB49-HNC cell growth in a cell viability assay.
In the case of CCN(CC)CCCCNc1ncc2cc(-c3cc(OC)cc(OC)c3)c(NC(=O)NC(C)(C)C)nc2n1 [PD-173074], the IC50 is reported as > 2000 nM.

What follows are compounds tested on CCRF-CEM (assay: cells). Details: Homo sapiens, CCRF-CEM.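 Further: inhibition of CCRF-CEM cell growth, measured by a cell viability assay.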
Assay type: functional, cell-based, Homo sapiens
Description: SANGER: Inhibition of human CCRF-CEM cell growth in a cell viability assay.
For CCN(CC)CCCCNc1ncc2cc(-c3cc(OC)cc(OC)c3)c(NC(=O)NC(C)(C)C)nc2n1 [PD-173074], the IC50 was > 2000 nM.

The compounds below were run on HDLM-2 (assay: cells). Details: Homo sapiens, HDLM-2.
Assay type: functional, cell-based, Homo sapiens
Description: SANGER: Inhibition of human HDLM-2 cell growth in a cell viability assay.
CCN(CC)CCCCNc1ncc2cc(-c3cc(OC)cc(OC)c3)c(NC(=O)NC(C)(C)C)nc2n1 [PD-173074] was tested, and the IC50 was > 2000 nM.

Each compound was assayed on DSH1 (assay: cells). Details: Homo sapiens, DSH1.
Assay type: functional, cell-based, Homo sapiens
Description: SANGER: Inhibition of human DSH1 cell growth in a cell viability assay.
CCN(CC)CCCCNc1ncc2cc(-c3cc(OC)cc(OC)c3)c(NC(=O)NC(C)(C)C)nc2n1 [PD-173074] was tested, and the IC50 was > 2000 nM.

These compounds were tested on COLO-684 (assay: cells). Details: Homo sapiens, COLO-684.
Assay type: functional, cell-based, Homo sapiens
Description: SANGER: Inhibition of human COLO-684 cell growth in a cell viability assay.
CCN(CC)CCCCNc1ncc2cc(-c3cc(OC)cc(OC)c3)c(NC(=O)NC(C)(C)C)nc2n1 [PD-173074] was tested, and the IC50 was > 2000 nM.

These compounds were tested on SW982 (assay: cells). Details: Homo sapiens, SW982.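 Further: growth inhibition of SW982 cells, read out with a cell viability assay.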
Assay type: functional, cell-based, Homo sapiens
Description: SANGER: Inhibition of human SW982 cell growth in a cell viability assay.
With CCN(CC)CCCCNc1ncc2cc(-c3cc(OC)cc(OC)c3)c(NC(=O)NC(C)(C)C)nc2n1 [PD-173074] the IC50 was > 2000 nM.

The compounds below were run on GT3TKB (assay: cells). Details: Homo sapiens, GT3TKB.
Assay type: functional, cell-based, Homo sapiens
Description: SANGER: Inhibition of human GT3TKB cell growth in a cell viability assay.
With CCN(CC)CCCCNc1ncc2cc(-c3cc(OC)cc(OC)c3)c(NC(=O)NC(C)(C)C)nc2n1 [PD-173074] the IC50 was > 2000 nM.

The compounds below were run on ONS-76 (assay: cells). Details: Homo sapiens, ONS-76.
Assay type: functional, cell-based, Homo sapiens
Description: SANGER: Inhibition of human ONS-76 cell growth in a cell viability assay.
For CCN(CC)CCCCNc1ncc2cc(-c3cc(OC)cc(OC)c3)c(NC(=O)NC(C)(C)C)nc2n1 [PD-173074], the IC50 was > 2000 nM.

These compounds were tested on TGBC1TKB (assay: cells). Details: Homo sapiens, TGBC1TKB.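 Further: growth inhibition of TGBC1TKB cells, read out by a cell viability assay.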
Assay type: functional, cell-based, Homo sapiens
Description: SANGER: Inhibition of human TGBC1TKB cell growth in a cell viability assay.
For CCN(CC)CCCCNc1ncc2cc(-c3cc(OC)cc(OC)c3)c(NC(=O)NC(C)(C)C)nc2n1 [PD-173074], the IC50 was > 2000 nM.

These compounds were tested on KLE (assay: cells). Details: Homo sapiens, KLE.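 Further: growth inhibition of human KLE cells, read out with a cell viability assay.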
Assay type: functional, cell-based, Homo sapiens
Description: SANGER: Inhibition of human KLE cell growth in a cell viability assay.
With CCN(CC)CCCCNc1ncc2cc(-c3cc(OC)cc(OC)c3)c(NC(=O)NC(C)(C)C)nc2n1 [PD-173074] the IC50 was > 2000 nM.

Each compound was assayed on SF-126 (assay: cells). Details: Homo sapiens, SF-126.
Assay type: functional, cell-based, Homo sapiens
Description: SANGER: Inhibition of human SF126 cell growth in a cell viability assay.
For CCN(CC)CCCCNc1ncc2cc(-c3cc(OC)cc(OC)c3)c(NC(=O)NC(C)(C)C)nc2n1 [PD-173074], the IC50 was > 2000 nM.

What follows are compounds tested on COLO-668 (assay: cells). Details: Homo sapiens, COLO-668.
Assay type: functional, cell-based, Homo sapiens
Description: SANGER: Inhibition of human COLO-668 cell growth in a cell viability assay.
In the case of CCN(CC)CCCCNc1ncc2cc(-c3cc(OC)cc(OC)c3)c(NC(=O)NC(C)(C)C)nc2n1 [PD-173074], the IC50 is reported as > 2000 nM.

What follows are compounds tested on COLO-829 (assay: cells). Details: Homo sapiens, COLO-829.
Assay type: functional, cell-based, Homo sapiens
Description: SANGER: Inhibition of human COLO-829 cell growth in a cell viability assay.
For CCN(CC)CCCCNc1ncc2cc(-c3cc(OC)cc(OC)c3)c(NC(=O)NC(C)(C)C)nc2n1 [PD-173074], the IC50 was > 2000 nM.

Each compound was assayed on GB-1 (assay: cells). Details: Homo sapiens, GB-1.
Assay type: functional, cell-based, Homo sapiens
Description: SANGER: Inhibition of human GB-1 cell growth in a cell viability assay.
With CCN(CC)CCCCNc1ncc2cc(-c3cc(OC)cc(OC)c3)c(NC(=O)NC(C)(C)C)nc2n1 [PD-173074] the IC50 was > 2000 nM.

What follows are compounds tested on KNS-81-FD (assay: cells). Details: Homo sapiens, KNS-81-FD.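 Further: growth inhibition of KNS-81-FD cells, read out with a cell viability assay.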
Assay type: functional, cell-based, Homo sapiens
Description: SANGER: Inhibition of human KNS-81-FD cell growth in a cell viability assay.
CCN(CC)CCCCNc1ncc2cc(-c3cc(OC)cc(OC)c3)c(NC(=O)NC(C)(C)C)nc2n1 [PD-173074] was tested, and the IC50 was > 2000 nM.

Each compound was assayed on SCC-15 (assay: cells). Details: Homo sapiens, SCC-15.
Assay type: functional, cell-based, Homo sapiens
Description: SANGER: Inhibition of human SCC-15 cell growth in a cell viability assay.
With CCN(CC)CCCCNc1ncc2cc(-c3cc(OC)cc(OC)c3)c(NC(=O)NC(C)(C)C)nc2n1 [PD-173074] the IC50 was > 2000 nM.
